The results in this text go back to patent US9951064B2, “Azaindazole compounds as inhibitors of T790M containing EGFR mutants” (Genentech, Inc., priority 2013, dated 2018).

In experiment [1] the target is T1, phosphor-EGFR in H1975(L585R/T790M) mutant EGFR expressing cells (Homo sapiens, UniProt P00533, L858R/T790M).
T1 construct: host or cells: NCI-H1975
The experiment is described as follows: H1975 pEGFR MSD cellular assay. Format: cell-based. The following applies: NCI-H1975 cells, serum starved, 1 hour compound incubation, pEGFR Tyr1068 MSD; read-out: HI975 pEGFR EC50. In outline:
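NCI-H1975 cells, 30,000/well, serum-starved overnight, then treated 1 hour at 37° C with serially diluted compounds in serum-free medium (0.5% DMSO). Lysates captured on anti-phospho-EGFR plates overnight at 4° C, detected with SULFO-TAG anti-total EGFR by electrochemiluminescence. Inhibition vs untreated controls; EC50 from 4-parameter logistic fit.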

Experiment [2] addresses T2, EGFR T790M L858R (Homo sapiens, UniProt P00533, L858R/T790M).
T2 construct: purchased Life Technologies PV4879
Briefly: EGFR T790M L858R biochemical assay (Caliper mobility shift). The following applies: 5 μM ATP; apparent Ki (Morrison fit) converted by Cheng-Prusoff, Km of ATP 1.3 μM. In outline:
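Reactions run 30 minutes at room temperature (22 °C), stopped with 80 mM EDTA. Phosphorylated product and substrate separated electrophoretically and quantified by Caliper mobility shift.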

In experiment [3] the target is T3, EGFR del746-750 T790M (Homo sapiens, UniProt P00533, DEL746-750/T790M).
T3 construct: purchased Carna Biosciences 08-528
The experiment is described as follows: EGFR del746-750 T790M biochemical assay (Caliper mobility shift). The note with it: 5 μM ATP; apparent Ki (Morrison fit) converted by Cheng-Prusoff, Km of ATP 2.1 μM; read-out: EGFR(T790M/d746-750) Ki. The procedure: The exemplified compounds described herein were tested according to the assay below. The enzyme data reported in Tables 4-5 is generally a representative of multiple experiments.
Reactions proceed for 30 minutes at room temperature (22° C.) and are terminated with 80 mM 2,2′,2″,2″′-(ethane-1,2-diyldinitrilo)tetraacetic acid (EDTA). Product is detected using the Caliper mobility shift detection method where product and substrate are electrophoretically separated and measured.

Experiment [4] has as its system H1975 (EGFR T790M/L858R) cell proliferation. The experiment is described as follows: H1975 proliferation assay (Cell Titer-Glo). The experiment is classed as cell-based. The following applies: Homo sapiens, NCI-H1975, 72 h, NCI-H1975 cells, 72 hour incubation, read-out: H1975 antiproliferative EC50. The procedure: H1975 Proliferation Assays
All cell culture reagents were purchased from Invitrogen/Gibco. Cells are cultured at 37° C. at 5% CO2 and split as recommended by ATCC.
Background: In ATP-based viability assays light output follows the ATP content of the culture.

pEC50, pKi: −log10 of the molar value.

T3 sequence (P00533 with tags, fused parts or gaps DEL746-750/T790M limits assumed): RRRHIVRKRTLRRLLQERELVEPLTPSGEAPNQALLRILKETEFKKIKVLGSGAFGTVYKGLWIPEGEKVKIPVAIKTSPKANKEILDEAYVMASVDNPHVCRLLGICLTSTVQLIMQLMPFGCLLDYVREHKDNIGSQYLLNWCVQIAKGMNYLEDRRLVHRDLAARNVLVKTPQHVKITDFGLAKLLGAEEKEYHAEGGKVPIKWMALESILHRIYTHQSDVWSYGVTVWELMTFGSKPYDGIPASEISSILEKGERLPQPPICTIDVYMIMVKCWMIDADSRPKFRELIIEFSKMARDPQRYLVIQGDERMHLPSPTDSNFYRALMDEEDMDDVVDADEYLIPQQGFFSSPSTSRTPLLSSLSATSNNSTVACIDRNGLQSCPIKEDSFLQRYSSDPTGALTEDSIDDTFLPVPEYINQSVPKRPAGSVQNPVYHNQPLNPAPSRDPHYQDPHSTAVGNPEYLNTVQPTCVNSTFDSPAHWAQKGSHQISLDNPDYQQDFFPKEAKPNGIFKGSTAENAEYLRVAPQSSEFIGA
T2 sequence (P00533 25-1210 T790M/L858R): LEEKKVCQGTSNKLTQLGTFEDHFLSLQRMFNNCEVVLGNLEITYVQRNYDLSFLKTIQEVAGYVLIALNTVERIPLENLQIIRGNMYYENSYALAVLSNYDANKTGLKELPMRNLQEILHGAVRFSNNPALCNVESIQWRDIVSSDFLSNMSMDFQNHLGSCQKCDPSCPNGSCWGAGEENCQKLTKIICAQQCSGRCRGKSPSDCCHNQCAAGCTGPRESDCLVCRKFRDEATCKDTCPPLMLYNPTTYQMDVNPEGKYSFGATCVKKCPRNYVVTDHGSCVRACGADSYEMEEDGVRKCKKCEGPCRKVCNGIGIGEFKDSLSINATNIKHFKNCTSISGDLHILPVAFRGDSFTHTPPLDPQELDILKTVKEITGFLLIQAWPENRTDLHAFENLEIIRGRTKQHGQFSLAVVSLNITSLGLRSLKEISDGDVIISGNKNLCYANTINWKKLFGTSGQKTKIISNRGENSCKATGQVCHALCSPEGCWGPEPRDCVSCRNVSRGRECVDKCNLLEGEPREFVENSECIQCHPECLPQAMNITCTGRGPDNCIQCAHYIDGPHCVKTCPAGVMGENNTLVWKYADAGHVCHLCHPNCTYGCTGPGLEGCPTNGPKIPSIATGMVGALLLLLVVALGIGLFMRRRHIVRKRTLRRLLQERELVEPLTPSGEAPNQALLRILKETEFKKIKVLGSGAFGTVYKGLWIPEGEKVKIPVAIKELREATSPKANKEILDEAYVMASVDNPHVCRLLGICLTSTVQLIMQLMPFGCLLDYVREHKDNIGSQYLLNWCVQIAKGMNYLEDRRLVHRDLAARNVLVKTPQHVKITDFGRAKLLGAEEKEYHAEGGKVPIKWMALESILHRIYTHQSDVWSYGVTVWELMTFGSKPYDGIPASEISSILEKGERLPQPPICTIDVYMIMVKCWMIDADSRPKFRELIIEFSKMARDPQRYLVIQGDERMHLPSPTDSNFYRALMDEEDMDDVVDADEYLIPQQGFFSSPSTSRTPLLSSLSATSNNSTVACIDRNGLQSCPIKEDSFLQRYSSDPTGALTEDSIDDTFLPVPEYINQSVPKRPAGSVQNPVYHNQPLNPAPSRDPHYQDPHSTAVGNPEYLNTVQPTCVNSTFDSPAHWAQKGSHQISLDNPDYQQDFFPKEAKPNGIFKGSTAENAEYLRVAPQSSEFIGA
T1 sequence (P00533 25-1210 T790M/L858R): as above

The term pEC50 denotes the EC50 on a negative log10 scale, so that one unit is a factor of ten. In the case of `CCC(C)n1nc(N2C[C@@H](CO)NC2=O)c2cnc(Nc3ccnc(N4CCC(C)(O)CC4)n3)cc21` (mixture of isomers) [Example 176, (4S)-1-(1-sec-Butyl-6-(2-(4-hydroxy-4-methylpiperidin-1-yl)pyrimidin-4-ylamino)-1H-pyrazolo[4,3-c]pyridin-3-yl)-4-(hydroxymethyl)imidazolidin-2-one], the values for the pEC50 in experiment [1] and in experiment [4] were 5.40 and < 5.00, respectively. In addition, the pKi in experiment [2] was 8.48; in experiment [3], 7.92.
On the same counts, the results for `CC(C)n1nc(N2CC3(COC3)C2)c2cnc(Nc3ccnc(N4CCC(O)C(F)C4)n3)cc21` (racemic) [Example 21, (±)-cis-3-Fluoro-1-{4-[1-isopropyl-3-(2-oxa-6-azaspiro[3.3]hept-6-yl)-1H-pyrazolo[4,3-c]pyridin-6-ylamino]-pyrimidin-2-yl}piperidin-4-ol] are 7.44, 6.41, 8.92 and 8.52.
With `CC(C)n1nc(N2CCNC2=O)c2cnc(Nc3ccnc(N4CCC(O)C(F)C4)n3)cc21` (racemic) [Example 22, (±)-1-(6-((2-(cis-3-Fluoro-4-hydroxypiperidin-1-yl)pyrimidin-4-yl)amino)-1-isopropyl-1H-pyrazolo[4,3-c]pyridin-3-yl)imidazolidin-2-one], the pEC50 in experiment [1] was 6.31; in experiment [4], < 5.52. For the same compound, the values for the pKi in experiment [2] and in experiment [3] were 8.27 and 7.69, respectively.
On the same counts, the results for `COC1CCN(c2nccc(Nc3cc4c(cn3)c(N3CC5(COC5)C3)nn4C(C)C)n2)CC1F` (racemic) [Example 23, (±)-2-(cis-3-Fluoro-4-methoxypiperidin-1-yl)pyrimidin-4-yl]-[1-isopropyl-3-(2-oxa-6-azaspiro[3.3]hept-6-yl)-1H-pyrazolo[4,3-c]pyridin-6-yl]amine] are 7.64, 6.61, 8.96 and 8.41.
On the same counts, the results for `CC(C)n1nc(N2CC3(COC3)C2)c2cnc(Nc3ccnc(N4CC[C@](C)(O)[C@H](F)C4)n3)cc21` (racemic) [Example 64, (3RS,4SR)-3-Fluoro-1-{4-[1-isopropyl-3-(2-oxa-6-azaspiro[3,3]hept-6-yl)-1H-pyrazolo[4,3-c]pyridin-6-ylamino]pyrimidin-2-yl}-4-methylpiperidin-4-ol] are 6.65, 6.15, 8.44 and 7.79.
For `CC(C)n1nc(N2CCO[C@@H](CO)C2)c2cnc(Nc3ccnc(N4CCC(O)C(F)C4)n3)cc21` (mixture of isomers) [Example 75, cis-3-Fluoro-1-(4-(3-((R)-2-(hydroxymethyl)morpholino)-1-isopropyl-1H-pyrazolo[4,3-c]pyridin-6-ylamino)pyrimidin-2-yl)piperidin-4-ol], the pEC50 in experiment [1] is 5.88; in experiment [4] it was 5.11. Further, the pKi in experiment [2] was 8.39; in experiment [3], 7.99.
On the same counts, the results for `CCC(C)n1nc(N2CC(O)(CO)C2)c2cnc(Nc3ccnc(N4CCC(C)(O)CC4)n3)cc21` (racemic) [Example 80, (±)-1-(4-(1-sec-Butyl-3-(3-hydroxy-3-(hydroxymethyl)azetidin-1-yl)-1H-pyrazolo[4,3-c]pyridin-6-ylamino)pyrimidin-2-yl)-4-methylpiperidin-4-ol] are 5.36, < 5.00, 8.39 and 8.03.
On to `CC(C)n1nc(N2CC(C)(C)NC2=O)c2cnc(Nc3ccnc(N4CCC(O)C(F)C4)n3)cc21` (racemic) [Example 88, (±)-1-(6-(2-(cis-3-Fluoro-4-hydroxypiperidin-1-yl)pyrimidin-4-ylamino)-1-isopropyl-1H-pyrazolo[4,3-c]pyridin-3-yl)-4,4-dimethylimidazolidin-2-one], for which the results for the pEC50 in experiment [1] and in experiment [4] were 6.73 and 6.31, respectively. Besides, the pKi in experiment [2] is 8.74; in experiment [3], 8.37.
